Here are results for ten molecules from patent publication US5750696A, “Dioxacycloalkane compound having renin-inhibitory activity” (Japan Tobacco Inc., priority 1992, dated 1998).

Assay [1] addresses T1, renin activity in human plasma (Homo sapiens, UniProt P00797).
T1 construct: Human plasma (200 μl); from tissue; host or cells: human plasma
T1 sequence (P00797 67-406): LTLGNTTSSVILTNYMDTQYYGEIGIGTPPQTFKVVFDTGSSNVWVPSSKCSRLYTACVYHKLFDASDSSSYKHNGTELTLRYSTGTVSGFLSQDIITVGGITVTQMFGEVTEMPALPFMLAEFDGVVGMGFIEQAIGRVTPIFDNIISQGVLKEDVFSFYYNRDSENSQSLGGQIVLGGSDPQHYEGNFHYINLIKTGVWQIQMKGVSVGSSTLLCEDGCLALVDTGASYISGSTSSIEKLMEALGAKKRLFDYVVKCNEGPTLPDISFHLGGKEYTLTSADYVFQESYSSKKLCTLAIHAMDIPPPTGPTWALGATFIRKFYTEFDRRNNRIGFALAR
Kind of assay: Inhibitory action on renin activity in human plasma. Format: biochemical. To be noted: 37° C., 1 hour, angiotensin I by radio immunoassay. As for the experimental part: (§1) In the following, the test results of the inhibitory action of the dioxacycloalkane compound of the above-mentioned formula [1] of the present invention, on the renin activity in human plasma and the hypotensive action on nonanesthetized marmosets under salt intake control are shown.
Inhibitory action on renin activity in human plasma
Human plasma (200 μl), a pH adjusting solution (20 μl), PMSF (10 μl), and a solution (10 μl) of the dioxacycloalkane compound of the present invention in dimethyl sulfoxide or dimethyl sulfoxide (10 μl ) as a control were placed in plastic tubes for RIA. Two sets of these were prepared and one set of them was incubated at 37° C. for 1 hour and the other was incubated at 4° C. for 1 hour.
After incubation, the amount of angiotensin I was quantitatively assayed by the radio immunoassay method. The renin activity in plasma was calculated by subtracting the amount of angiotensin I in the reaction mixture incubated at 4° C. from that in the reaction mixture incubated at 37° C. Percent inhibitory activity was calculated from the following formula [formula] The molar concentration necessary for 50% inhibition of activity (IC5 0) was determined from the inhibitory activity value obtained by the above calculating formula. [RENIN RIABEADS KIT (Dinabot Ltd.) was used for the measurement.]

Assay [2] concerns non-anesthetized marmosets. Kind of assay: Hypotensive action on non-anesthetized marmosets under salt intake control. Format: in vivo. Conditions: 10 mg/kg, po, low salt diet, tail-cuff method, relative to value before administration.
Source text: as §1
Hypotensive action on non-anesthetized marmosets under salt intake control
Non-anesthetized marmosets (weighing 310-370 g) raised on a low salt diet (containing 0.02% salt, 1/10 of the normal diet) for a week were orally administered with the compound (10 mg/kg) of Example 1 dissolved in 0.1 M citric acid, at the ratio of 2 ml/kg. The blood pressure was measured with the lapse of time before and after the administration by the tail-cuff method, and the hypotensive action was calculated in percentage relative to the value measured before the administration.

Broadly, the IC50 is the point on the concentration scale where inhibition reaches its midpoint.

`CN(C(=O)[C@H](Cc1ccccc1)NC(=O)N1CCCCC1)[C@@H](Cc1c[nH]cn1)C(=O)N[C@@H](CC1CCCCC1)[C@@H](O)C[C@@H]1OC(c2ccccc2)OC1(C)C` (stereo partly drawn) [Example 12, (4S)-4-[(2S,3S)-4-cyclohexyl-2-hydroxy-3-[[Nα-methyl-N α-(N-piperidinocarbonyl-L-phenylalanyl)-L-histidyl]amino]butyl]-5,5-dimethyl-2-phenyl-1,3-dioxolane] registered an IC50 in assay [1] of 4 nM.
On the same count and under the same terms, to `CC1(C)OCO[C@H]1C[C@H](O)[C@H](CC1CCCCC1)NC(=O)[C@H](Cc1c[nH]cn1)NC(=O)[C@H](Cc1ccccc1)NC(=O)N1CCCCC1` [Example 4, (4S)-4-[(2S,3S)-4-cyclohexyl-2-hydroxy-3-[[N α-(N-piperidino-carbonyl-L-phenylalanyl)-L-histidyl]amino]butyl]-5,5-dimethyl-1,3-dioxolane] belongs 1.8 nM.
Turning to `CN(C(=O)[C@H](Cc1ccccc1)NC(=O)N1CCCCC1)[C@@H](Cc1c[nH]cn1)C(=O)N[C@@H](CC1CCCCC1)[C@@H](O)C[C@@H]1OCOC1(C)C` [Example 1, (4S)-4-[(2S,3S)-4-cyclohexyl-2-hydroxy-3-[[Nα-methyl-N α-(N-piperidinocarbonyl-L-phenylalanyl)-L-histidyl]amino]butyl]-5,5-dimethyl-1,3-dioxolane], the “Hypotensive action (%) 0.5 hr later” value in assay [2] (0.5 hr later) stood at 10%. Moreover, the “Hypotensive action (%) 1 hr later” value in assay [2] (1 hr later) was 12%. For the same molecule, in assay [2] (3 hrs later), the “Hypotensive action (%) 3 hrs later” value is 10%. In assay [2] (5 hrs later), the “Hypotensive action (%) 5 hrs later” value is listed as 10%. Further, in assay [2] (7 hrs later), the “Hypotensive action (%) 7 hrs later” value is reported as 3%. For the same molecule, in assay [1], 0.9 nM corresponded to half-maximal inhibition (IC50).
On to `CSC[C@H](NC(=O)[C@H](Cc1ccccc1)OC(=O)N1CCN(C)CC1)C(=O)N[C@@H](CC1CCCCC1)[C@@H](O)C[C@@H]1OCOC1(C)C` [Example 5, (4S)-4-[(2S,3S)-4-cyclohexyl-2-hydroxy-3-[[S-methyl-N-[(2S)-3-phenyl-2-(4-methylpiperazinyl)carbonyloxypropionyl]-L-cysteinyl]amino]butyl]-5,5-dimethyl-1,3-dioxolane], for which, in assay [1], the 50% inhibitory concentration (IC50) was found to be 14 nM. This lies in the double-digit nanomolar range.
The same measure, in the same setting: for `CCN(CC)C(=O)N[C@@H](Cc1ccccc1)C(=O)N(C)[C@@H](Cc1c[nH]cn1)C(=O)N[C@@H](CC1CCCCC1)[C@@H](O)C[C@@H]1OCOC1(C)C` [Example 10, (4S)-4-[(2S,3S)-4-cyclohexyl-2-hydroxy-3-[[Nα-methyl-N α-[N-(diethylamino)carbonyl-L-phenylalanyl]-L-histidyl]amino]butyl]-5,5-dimethyl-1,3-dioxolane] the value was 7.8 nM; for `CN(C(=O)[C@H](Cc1ccccc1)NC(=O)N1CCCCC1)[C@@H](Cc1c[nH]cn1)C(=O)N[C@@H](CC1CCCCC1)[C@@H](O)C[C@H]1OCOC1(C)C` [Example 2, (4R)-4-[(2S,3S)-4-cyclohexyl-2-hydroxy-3-[[Nα-methyl-N α-(N-piperidinocarbonyl-L-phenylalanyl)-L-histidyl]amino]butyl]-5,5-dimethyl-1,3-dioxolane], 21 nM; for `CN(C(=O)[C@H](Cc1ccccc1)NC(=O)N1CCCCC1)[C@@H](Cc1c[nH]cn1)C(=O)N[C@@H](CC1CCCCC1)[C@@H](O)C[C@@H]1OC(C)(C)OC1(C)C` [Example 11, (4S)-4-[(2S,3S)-4-cyclohexyl-2-hydroxy-3-[[Nα-methyl-N α-(N-piperidinocarbonyl-L-phenylalanyl)-L-histidyl]amino]butyl]-2,2,5,5-tetramethyl-1,3-dioxolane], 13 nM.
The same measure, in the same setting: for `CC1CCN(C(=O)N[C@@H](Cc2ccccc2)C(=O)N(C)[C@@H](Cc2c[nH]cn2)C(=O)N[C@@H](CC2CCCCC2)[C@@H](O)C[C@@H]2OCOC2(C)C)CC1` [Example 9, (4S)-4-[(2S,3S)-4-cyclohexyl-2-hydroxy-3-[[Nα-methyl-N α-[N-(4-methylpiperidino)carbonyl-L-phenylalanyl]-L-histidyl]-amino]butyl]-5,5-dimethyl-1,3-dioxolane] the value was 3 nM; for `CN(C(=O)[C@H](Cc1ccccc1)NS(=O)(=O)N1CCCCC1)[C@@H](Cc1c[nH]cn1)C(=O)N[C@@H](CC1CCCCC1)[C@@H](O)C[C@@H]1OCOC1(C)C` [Example 6, (4S)-4-[(2S,3S)-4-cyclohexyl-2-hydroxy-3-[[Nα-methyl-N α-(N-piperidinosulfonyl-L-phenylalanyl)-L-histidyl]amino]butyl]-5,5-dimethyl-1,3-dioxolane], 11 nM.
The same measure, in the same setting: to `CC1(C)OCO[C@H]1C[C@H](O)[C@H](CC1CCCCC1)NC(=O)[C@H](Cc1c[nH]cn1)NC(=O)[C@H](Cc1ccccc1)OC(=O)N1CCCCC1` [Example 3, (4S)-4-[(2S,3S)-4-cyclohexyl-2-hydroxy-3-[[Nα-[(2S)-3-phenyl-2-piperidinocarbonyloxypropionyl]-L-histidyl]amino]butyl]-5,5-dimethyl-1,3-dioxolane] belongs 7 nM.
